Counter-ions that a name gives are not always drawn. Like-named read-outs stand apart in the source and are kept apart here.
Experiments:
[1] = target: Nav1.5 sodium channel transfected into HEK293 cells (Homo sapiens, UniProt Q14524); assay: in vitro
Protocol: (§1) This provided data to investigate the physiology and action of target compounds on individual ion channels. The assay used standardized protocols for culturing and conducting conventional whole cell recording that have been previously developed for both current and voltage-clamp to characterize action potentials using transfected cells. Briefly, the Nav1.5 sodium channel was transfected into HEK293 cells. […] Briefly, cells were plated on 0.1% gelatin-coated 35-mm plastic Petri dishes. […] Data was reported as IC50 values±STD (Table 1).

[2] = target: Nav1.5 sodium channel, peak current (INaP) (Homo sapiens, UniProt Q14524, form not given); assay: in vitro
Protocol: as §1

[3] = test system: normal human induced pluripotent stem cell (hiPSC) cardiomyocyte; conditions: for WT-Fold Prolongation: APD; for WT-Fold Prolongation / Cessation of Beating / WT-Prolongation Dose / WT-EAD Dose: normal hiPSC cardiomyocytes
[4] = test system: cardiomyocytes derived from hiPSCs from a LQTS3 patient
[5] = target: hERG potassium channel (IKr) (Homo sapiens, UniProt Q12809); assay: Automated patch clamp, hERG (IKr) expressed in CHO cells; conditions: for IC50: hERG (IKr) IC50, CHO cells
[6] = test system: cardiomyocytes derived from hiPSCs from a LQTS3 patient; assay: cells; conditions: Homo sapiens, Cardiomyocyte
[7] = ratio peak/late IC50, Example 2
[8] = read-out: LQT-IC50 (uM)-Shortening

hERG potassium channel (IKr), sequence (Q12809 whole entry): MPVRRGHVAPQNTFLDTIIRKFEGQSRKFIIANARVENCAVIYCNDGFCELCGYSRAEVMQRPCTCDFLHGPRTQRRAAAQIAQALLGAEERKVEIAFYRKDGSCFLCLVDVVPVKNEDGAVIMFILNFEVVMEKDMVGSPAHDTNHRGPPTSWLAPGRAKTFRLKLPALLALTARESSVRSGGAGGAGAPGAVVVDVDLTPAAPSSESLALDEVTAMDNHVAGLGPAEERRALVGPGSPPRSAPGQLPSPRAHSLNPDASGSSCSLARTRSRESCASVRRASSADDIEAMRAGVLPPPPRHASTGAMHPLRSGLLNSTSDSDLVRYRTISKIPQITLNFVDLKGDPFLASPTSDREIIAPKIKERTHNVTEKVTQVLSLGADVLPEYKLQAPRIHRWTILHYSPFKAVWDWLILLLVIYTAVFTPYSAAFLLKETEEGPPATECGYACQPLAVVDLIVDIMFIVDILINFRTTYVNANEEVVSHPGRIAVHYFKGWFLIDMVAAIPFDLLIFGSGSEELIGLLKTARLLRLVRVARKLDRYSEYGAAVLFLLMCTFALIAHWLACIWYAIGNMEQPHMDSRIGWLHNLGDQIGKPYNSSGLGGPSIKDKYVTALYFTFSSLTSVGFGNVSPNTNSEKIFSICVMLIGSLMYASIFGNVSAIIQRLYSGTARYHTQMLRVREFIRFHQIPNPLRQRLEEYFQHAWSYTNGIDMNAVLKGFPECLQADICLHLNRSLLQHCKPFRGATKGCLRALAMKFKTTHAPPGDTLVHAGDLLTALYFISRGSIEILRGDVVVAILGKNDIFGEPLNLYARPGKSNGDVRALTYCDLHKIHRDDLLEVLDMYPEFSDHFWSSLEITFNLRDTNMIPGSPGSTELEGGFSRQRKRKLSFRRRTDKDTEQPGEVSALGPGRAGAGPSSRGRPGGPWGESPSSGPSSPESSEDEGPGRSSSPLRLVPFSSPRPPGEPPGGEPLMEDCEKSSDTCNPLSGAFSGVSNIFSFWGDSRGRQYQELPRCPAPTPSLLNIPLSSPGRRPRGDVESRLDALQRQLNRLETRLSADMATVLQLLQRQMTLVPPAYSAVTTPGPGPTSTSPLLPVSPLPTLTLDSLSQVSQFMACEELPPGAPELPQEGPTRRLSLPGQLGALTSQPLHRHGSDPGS

Cc1cccc(OCC(N)c2ccccc2)c1C (stereo not shown) [Compound 35, 2-(2,3-dimethylphenoxy)-1-phenylethanamine]
IC50 [1]: 1.03 µM
DNap/NaL [1, 7]: 10.6
IC50 ([2]; Peak Na+ (INaP) IC50): 10.9 µM
WT-Fold Prolongation [3]: None
Cessation of Beating [3]: 133 µM
WT-Prolongation Dose [3]: None
LQT-Cessation Dose ([4]; LQT3 cardiomyocytes): 66 µM
LQT-Fold Shortening ([4]; LQT3 cardiomyocytes): 1.406
IC50 ([5]; Example 2): 9.2 µM
DKr/NaL ([5]; ratio, Example 2): 8.9
DNaP/Kr ([5]; ratio, Example 2): 1.2

Cc1cccc(C)c1OCC(C)N (racemic) [racemic Mexiletine]
IC50 ([2]; Peak Na+ (INaP) IC50): 183 µM
IC50 [6, 8]: 1.83 µM
IC50 ([5]; Example 2): 54 µM

Cc1cccc(C)c1OCC(N)C1CC1 (stereo not shown) [Compound 10]
IC50 [1]: 7.3 µM
DNap/NaL ([1]; ratio peak IC50/late IC50): 18.0
IC50 ([2]; Peak Na+ (INaP) IC50): 130 µM
WT-Fold Prolongation [3]: 2.262
WT-EAD Dose [3]: 66 µM
LQT-Cessation Dose ([4]; LQT3 cardiomyocytes): 200 µM
LQT-Fold Shortening ([4]; LQT3 cardiomyocytes): 1.162
IC50 [6, 8]: 0.8 µM
IC50 [5]: 30 µM
DKr/NaL ([5]; ratio hERG IC50/late Na IC50): 4.1
DNaP/Kr ([5]; ratio peak Na IC50/hERG IC50): 4.3

Cc1ccc(OCC(N)c2ccccc2)c(C)c1.Cl (stereo not shown) [Compound 66]
DNap/NaL ([1]; ratio peak IC50/late IC50): 10.5
DNap/NaL [1, 7]: 10.7
IC50 ([2]; Peak Na+ (INaP) IC50): 22.1 µM
WT-Fold Prolongation [3]: None
Cessation of Beating [3]: 66 µM
WT-Prolongation Dose [3]: None
LQT-Cessation Dose ([4]; LQT3 cardiomyocytes): 66 µM
LQT-Fold Shortening ([4]; LQT3 cardiomyocytes): 1.192
IC50 [6, 8]: 0.486 µM
IC50 [5]: 5.9 µM
IC50 ([5]; Example 2): 5.9 µM
DKr/NaL ([5]; ratio hERG IC50/late Na IC50): 2.8
DNaP/Kr ([5]; ratio peak Na IC50/hERG IC50): 3.7
DKr/NaL ([5]; ratio, Example 2): 2.8
DNaP/Kr ([5]; ratio, Example 2): 3.7

Cc1cccnc1OCC(C)N (stereo not shown) [Compound 100, 1-(-3-Methyl-pyridin-2-yloxy)propan-2-amine]
IC50 ([2]; Peak Na+ (INaP) IC50): 252 µM
WT-Fold Prolongation [3]: None
Cessation of Beating [3]: None
WT-Prolongation Dose [3]: None
LQT-Cessation Dose ([4]; LQT3 cardiomyocytes): 22 µM
LQT-Fold Shortening ([4]; LQT3 cardiomyocytes): 1.13

Cc1cc(C)cc(OCC(C)N)c1 (stereo not shown) [Compound 55]
IC50 [1]: 17 µM
DNap/NaL ([1]; ratio peak IC50/late IC50): 9.1
IC50 ([2]; Peak Na+ (INaP) IC50): 154 µM
WT-Fold Prolongation [3]: 1.159
Cessation of Beating [3]: None
LQT-Cessation Dose ([4]; LQT3 cardiomyocytes): 200 µM
LQT-Fold Shortening ([4]; LQT3 cardiomyocytes): 1.232
IC50 [6, 8]: 4.45 µM
IC50 [5]: 49 µM
DKr/NaL ([5]; ratio hERG IC50/late Na IC50): 2.9
DNaP/Kr ([5]; ratio peak Na IC50/hERG IC50): 3.1

Cc1cc(C)cc(OCC(N)C2CC2)c1.Cl (stereo not shown) [Compound 91]
IC50 [1]: 10 µM
DNap/NaL ([1]; ratio peak IC50/late IC50): 7.7
DNap/NaL [1, 7]: 7.68
IC50 ([2]; Peak Na+ (INaP) IC50): 76.8 µM
IC50 [5]: 45.8 µM
IC50 ([5]; Example 2): 45.8 µM
DKr/NaL ([5]; ratio hERG IC50/late Na IC50): 4.6
DNaP/Kr ([5]; ratio peak Na IC50/hERG IC50): 1.7
DKr/NaL ([5]; ratio, Example 2): 4.6
DNaP/Kr ([5]; ratio, Example 2): 1.7

Cc1cccc(C)c1OC[C@H](C)N [Compound 2b, (S)-(+)-Mexiletine Hydrochloride, reference compound]
IC50 ([2]; Peak Na+ (INaP) IC50): 129 µM
WT-EAD Dose [3]: 200 µM
LQT-Cessation Dose ([4]; LQT3 cardiomyocytes): None
IC50 [6, 8]: 0.8 µM
IC50 [5]: 84 µM

Cc1cccc(C)c1OCC(C)N (racemic) [Compound 1, Mexiletine, reference compound]
IC50 ([2]; Peak Na+ (INaP) IC50): 183 µM
WT-EAD Dose [3]: 200 µM
LQT-Cessation Dose ([4]; LQT3 cardiomyocytes): None
IC50 [6, 8]: 1.83 µM
IC50 [5]: 54 µM

Cc1cc(C)cc(OCC(N)C2CCCCC2)c1.Cl (stereo not shown) [Compound 89]
DNap/NaL ([1]; ratio peak IC50/late IC50): 15.2
DNap/NaL [1, 7]: 15.3
IC50 ([2]; Peak Na+ (INaP) IC50): 24.3 µM
IC50 [5]: 4.9 µM
IC50 ([5]; Example 2): 4.9 µM
DKr/NaL ([5]; ratio hERG IC50/late Na IC50): 3.1
DNaP/Kr ([5]; ratio peak Na IC50/hERG IC50): 5.0
DKr/NaL ([5]; ratio, Example 2): 3.1
DNaP/Kr ([5]; ratio, Example 2): 5.0

Cc1cccc(C)c1OC[C@@H](C)N [Compound 2a, (R)-(−)-Mexiletine Hydrochloride, reference compound]
IC50 ([2]; Peak Na+ (INaP) IC50): 128 µM
WT-EAD Dose [3]: 200 µM
LQT-Cessation Dose ([4]; LQT3 cardiomyocytes): None
IC50 [6, 8]: 0.96 µM
IC50 [5]: 54 µM

Cc1cccc(C)c1OCC(NC(=O)c1ccccc1)c1ccccc1 (stereo not shown) [Compound 29, N-(2-(2,6-dimethylphenoxy)-1-phenylethyl)benzamide]
WT-Fold Prolongation [3]: None
Cessation of Beating [3]: None
WT-Prolongation Dose [3]: None
LQT-Cessation Dose ([4]; LQT3 cardiomyocytes): None
LQT-Fold Shortening ([4]; LQT3 cardiomyocytes): 1.64
IC50 [6, 8]: > 0.8 µM

COCCNC(COc1ccccc1C)c1ccccc1.Cl (stereo not shown) [Compound 90]
DNap/NaL ([1]; ratio peak IC50/late IC50): 11.8
DNap/NaL [1, 7]: 11.8
IC50 ([1]; read-out: Late Na+ (INaL) IC50, patch clamp, transfected cells): 2.83 µM
IC50 ([1]; read-out: Late Na+ (INaL) IC50, transfected cells, Example 2): 2.83 µM
IC50 ([1]; read-out: Peak Na+ (INaP) IC50, transfected cells, Example 2): 33.4 µM
IC50 [2]: 33.4 µM
WT-Fold Prolongation [3]: None
Cessation of Beating [3]: 133 µM
WT-Prolongation Dose [3]: None
LQT-Cessation Dose ([4]; LQT3 cardiomyocytes): 133 µM
LQT-Fold Shortening ([4]; LQT3 cardiomyocytes): 1.1
IC50 ([5]; Example 2): 25.3 µM
DKr/NaL ([5]; ratio, Example 2): 1.32
DNaP/Kr ([5]; ratio, Example 2): 1.32

NC(COc1ncccc1C(F)(F)F)c1ccccc1 (stereo not shown) [Compound 96, 1-phenyl-2-((3-(trifluoromethyl)pyridin-2-yl)oxy)ethan-1-amine]
WT-Fold Prolongation [3]: 1.163
Cessation of Beating [3]: None
WT-Cessation Dose ([3]; pyridyl derivatives): No cessation of beating
WT-EC50 (μM) Prolongation ([3]; pyridyl derivatives): Does Not Prolong AP
LQT-Cessation Dose ([4]; LQT3 cardiomyocytes): None
LQT-Fold Shortening ([4]; LQT3 cardiomyocytes): 1.3
LQT-Fold Shortening ([4]; pyridyl derivatives): 1.358
LQT-Shortening Dose ([4]; pyridyl derivatives): 133 µM
EC50 ([6]; read-out: LQT-EC50 (μM) Shortening, pyridyl derivatives): 20.7 µM

Cc1cccc(C)c1OCC(N)c1ccc(C(F)(F)F)cc1 (stereo not shown) [Compound 16, 2-(2,6-dimethylphenoxy)-1-(4-(trifluoromethyl)phenyl)ethanamine]
WT-Fold Prolongation [3]: None
Cessation of Beating [3]: 66 µM
WT-Prolongation Dose [3]: None
LQT-Cessation Dose ([4]; LQT3 cardiomyocytes): 66 µM
LQT-Fold Shortening ([4]; LQT3 cardiomyocytes): 1.480
IC50 [6, 8]: 1.38 µM

CC(N)COc1cccc(C(F)(F)F)c1.Cl (stereo not shown) [Compound 85]
WT-Fold Prolongation [3]: None
Cessation of Beating [3]: 200 µM
WT-Prolongation Dose [3]: None
LQT-Cessation Dose ([4]; LQT3 cardiomyocytes): 200 µM
LQT-Fold Shortening ([4]; LQT3 cardiomyocytes): 1.661
IC50 [6, 8]: 31.3 µM

CCCCNC(COc1cccc(C)c1C)c1ccccc1 (stereo not shown) [Compound 30, 2-(2,3-dimethylphenoxy)-N-butyl-1-phenylethanamine]
WT-Fold Prolongation [3]: None
Cessation of Beating [3]: 133 µM
WT-Prolongation Dose [3]: None
LQT-Cessation Dose ([4]; LQT3 cardiomyocytes): 200 µM
LQT-Fold Shortening ([4]; LQT3 cardiomyocytes): 1.423
IC50 [6, 8]: 20.2 µM

Cc1cccc(C)c1OCC(C)NC(=O)c1ccccc1 (stereo not shown) [Compound 54]
WT-Fold Prolongation [3]: None
Cessation of Beating [3]: 66 µM
WT-Prolongation Dose [3]: None
LQT-Cessation Dose ([4]; LQT3 cardiomyocytes): 133 µM
LQT-Fold Shortening ([4]; LQT3 cardiomyocytes): 1.45
IC50 [6, 8]: 57.8 µM

Cc1ccc(OCC(N)C2CC2)c(C)c1.Cl (stereo not shown) [Compound 65]
WT-Fold Prolongation [3]: 2.12
Cessation of Beating [3]: 200 µM
WT-EAD Dose [3]: 66 µM
LQT-Cessation Dose ([4]; LQT3 cardiomyocytes): 200 µM
LQT-Fold Shortening ([4]; LQT3 cardiomyocytes): 1.119
IC50 [6, 8]: 1.36 µM

Cc1cccnc1OCC(O)c1ccccc1 (stereo not shown) [Compound 21]
DNap/NaL ([1]; ratio peak IC50/late IC50): 6.1
DNap/NaL [1, 7]: 6.1
IC50 ([2]; Peak Na+ (INaP) IC50): 129 µM
WT-Fold Prolongation [3]: None
Cessation of Beating [3]: None
WT-Prolongation Dose [3]: None
LQT-Cessation Dose ([4]; LQT3 cardiomyocytes): None
LQT-Fold Shortening ([4]; LQT3 cardiomyocytes): 1.23
IC50 [5]: 100 µM
IC50 ([5]; Example 2): > 100 µM
DKr/NaL ([5]; ratio hERG IC50/late Na IC50): 4.7
DNaP/Kr ([5]; ratio peak Na IC50/hERG IC50): 1.3
DKr/NaL ([5]; ratio, Example 2): >4.7
DNaP/Kr ([5]; ratio, Example 2): 1.3

C[C@@H](N)COc1ccccc1.Cl [Compound 71, (R)-1-phenoxypropan-2-amine hydrochloride]
WT-Fold Prolongation [3]: 1.997
Cessation of Beating [3]: None
WT-EAD Dose [3]: 200 µM
LQT-Cessation Dose ([4]; LQT3 cardiomyocytes): None
LQT-Fold (prolongation) ([4]; cell in fold shortening column marked (prolongation)): 1.214 (prolongation)
IC50 ([6]; read-out: LQT-IC50 (prolongation)): 194 µM

Cc1cccc(OCC(O)c2ccccc2)c1C (stereo not shown) [Compound 32, 2-(2,3-dimethylphenoxy)-1-phenylethanol]
WT-Fold Prolongation [3]: None
Cessation of Beating [3]: 133 µM
WT-Prolongation Dose [3]: None
LQT-Cessation Dose ([4]; LQT3 cardiomyocytes): 66 µM
LQT-Fold Shortening ([4]; LQT3 cardiomyocytes): 1.355
IC50 [6, 8]: 7.53 µM

Cc1cccc(Cl)c1OC[C@@H](C)N [Compound 56]
WT-Fold Prolongation [3]: 3.925
Cessation of Beating [3]: None
WT-EAD Dose [3]: 133 µM
LQT-Cessation Dose ([4]; LQT3 cardiomyocytes): None
LQT-Fold Shortening ([4]; LQT3 cardiomyocytes): 1.189
IC50 [6, 8]: 0.04 µM

Cc1cccc(C)c1OCC(N)C1CCCCC1.Cl (stereo not shown) [Compound 73]
WT-Fold Prolongation [3]: None
Cessation of Beating [3]: 66 µM
WT-Prolongation Dose [3]: None
LQT-Cessation Dose ([4]; LQT3 cardiomyocytes): 66 µM
LQT-Fold Shortening ([4]; LQT3 cardiomyocytes): 1.136
IC50 [6, 8]: 0.082 µM

COCCNC(C)COc1c(C)cccc1C (stereo not shown) [Compound 40, 1-(2,6-dimethylphenoxy)-N-methoxy-ethyl-2-amine]
WT-Fold Prolongation [3]: 4.366
Cessation of Beating [3]: None
WT-EAD Dose [3]: 66 µM
WT-Prolongation Dose [3]: 32 µM
LQT-Cessation Dose ([4]; LQT3 cardiomyocytes): None
LQT-Fold Shortening ([4]; LQT3 cardiomyocytes): 1.267
LQT-Shortening Dose ([4]; LQT3 cardiomyocytes): 7.4 µM
IC50 [6, 8]: 2.31 µM
